Data reported in US8288548B2, “Oxazolo[5-4-b]pyridin-5-yl compounds” (Eli Lilly and Company, priority 2010, dated 2012).

How the values were obtained:
[1] = target: human p38α MAP kinase (Homo sapiens, UniProt Q16539); experiment: Inhibition of p38α MAP kinase enzyme activity (33P-ATP filter assay); format: biochemical; conditions: 100 μM ATP, 11.8 nM p38α MAP kinase
Protocol: The kinase reaction buffer is prepared as a stock solution containing 1440 μL of 1 M 4-(2-hydroxyethyl)-1-piperazineethanesulfonic acid (HEPES) pH 7.5, 240 μL of 1 M MgCl2, 72 μL of 1 M dithiothreitol (DTT), 25 μL of 10% TRITON® X-100, 43223 μL of H2O. The substrate mix is prepared by combining the following: 2775 μL kinase reaction buffer, 75.0 μL adenosine triphosphate (ATP) at 10 mM, 270 μL EGFR peptide (Upstate Biotechnology/Millipore) at 4 mM (9.17 mg/mL) and 12.5 μL ^33P-ATP. The p38 MAP kinase enzyme stock solution is prepared by diluting 0.1 mg/mL solution of purified human p38α MAP kinase in 3000 μL of reaction buffer. Stock solutions of test compounds are generated by dissolving the compounds in 100% dimethyl sulfoxide (DMSO) at 10 mM. 100 μM stock dilution plates are generated by diluting 2 μL of 10 mM stock in 198 μL of 20% DMSO. 1:3 dilutions in 20% DMSO are generated from the 100 μM stock using a Tecan liquid handler.
For the kinase assay, 5 μL of diluted compound is transferred to the reaction plate, followed by 10 μL of enzyme stock solution (added using a MULTIDROP® liquid dispenser). […] Following the washing steps, 80 μL of MICROSCINT™20 is added and the radioactivity counted in a Trilux MICROBETA®. IC50 values are calculated using Activity Base software (IDBS).

[2] = test system: p38 MAP kinase; experiment: In vivo inhibition of p38 MAP kinase in U87MG tumor-bearing mice (p-MAPKAPK2 in tumor lysates); design: species or system athymic nude mice; conditions: oral, 2 hours after dosing
Protocol: A murine xenograft model utilizing the human tumor cell line, U87MG, is used for assessment of inhibition of p38 MAP kinase in tumors
Female athymic nude mice (24-26 g, Harlan) are injected subcutaneously in the rear flank with 5×10^6 U87MG cells per animal Cells are injected in a 0.2 mL volume with a 1:1 mixture of cell culture media and BD […]™ matrix. 7 days after implant tumors are measured using a caliper and the data recorded. Tumors are measured twice weekly thereafter and the tumor size is recorded. When tumors reach an average volume of approximately 250 mm^3 (usually 10-15 days after implant), animals are randomized into groups of 8-10 for treatment. Animals are then dosed orally with 0.2 mL vehicle (1% HEC, 0.25% TWEEN® 80, 0.05% antifoam) alone or vehicle containing test compound. 2 Hours after dosing, animals are euthanized. […]
p-MAPKAPK2 levels in the tumor lysates are determined using a Mesoscale Discovery (MSD) capture ELISA kit (2 Phospho-MAPKAPK-2 (Thr334)). The concentration of protein in the lysates is determined using a BioRad DC protein assay kit (BioRad). […] Following incubation with the detection antibody, the MSD plate is washed followed by addition of MSD read buffer. After passage of current over the electrode, electro-chemiluminescence results in the generation of light that is quantified using the MSD Sector 6000 instrument. […]

human p38α MAP kinase, sequence (Q16539 whole entry): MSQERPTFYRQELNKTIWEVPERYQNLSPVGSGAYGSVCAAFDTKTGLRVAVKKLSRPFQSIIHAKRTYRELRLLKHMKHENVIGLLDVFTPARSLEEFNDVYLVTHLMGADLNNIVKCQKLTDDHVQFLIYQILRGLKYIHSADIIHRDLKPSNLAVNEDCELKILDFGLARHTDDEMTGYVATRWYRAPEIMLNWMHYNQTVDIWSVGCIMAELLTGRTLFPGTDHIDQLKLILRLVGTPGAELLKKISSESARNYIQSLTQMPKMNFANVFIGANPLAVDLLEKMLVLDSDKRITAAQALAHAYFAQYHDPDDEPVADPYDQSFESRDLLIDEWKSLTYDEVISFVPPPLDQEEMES

COCC[C@H](C)Nc1nc2ccc(-c3nc(C(C)(C)CO)[nH]c3-c3ccc(F)cc3F)nc2o1 [Example 1, 2-[5-(2,4-Difluorophenyl)-4-[2-[[(1S)-3-methoxy-1-methyl-propyl]amino]oxazolo[5,4-b]pyridin-5-yl]-1H-imidazol-2-yl]-2-methyl-propan-1-ol]
IC50 [1]: 3 nM
TED70 for p38 MAP kinase target inhibition in tumors [2]: 2.9 mg/kg
TEC70 ([2]; U87MG tumors): 31.3 ng/mL
